# Entries after “also recorded” stand apart in the source; their conditions may differ.
# Key:
# cambialistic StSOD = cambialistic StSOD (Streptococcus thermophilus, UniProt Q5M4Z1); assay: SOD activity assay with StSOD; format: biochemical
# Source text: Purified recombinant forms of SmSOD and StSOD were obtained through a heterologous expression system constituted by the Escherichia coli BL21(DE3) strain transformed with appropriate expression vectors, vSmSOD [11] or vStSOD [12]. These pET-22b(+)- or pET-28b(+)-derived plasmids led to the production of recombinant forms of SmSOD or StSOD, respectively fused to a His-tail, useful for their one-step purification by affinity chromatography, as previously described [11, 12]. The improvement of Mn uptake by SmSOD was realised as previously described [11, 12, 13]. The resulting metal (Fe and Mn) content in the cambialistic enzyme was determined by graphite furnace atomic absorption spectrometry with a Shimadzu ACS-6100 auto sampler [46]. Fe-SOD from Escherichia coli (cat. SRP6107) and the Cu/Zn-SOD from bovine erythrocytes (cat. 574594) were purchased from Sigma–Aldrich. A recombinant form of the eukaryal Mn–SOD from rat mitochondria was prepared as previously described [19]. Protein concentration was determined by the Bradford method, using bovine serum albumin as standard [47]. […] One unit of SOD activity was defined as the amount of enzyme that caused 50% inhibition of cytochrome c reduction.
# [1] = system: fibroblast cell line BJ-5ta; assay: Colony-forming assay; format: cell-based, human; conditions: up to 100 µM
# Method: The cell line BJ-5ta, a human skin fibroblast immortalised with the human telomerase reverse transcriptase (Cell Culture Facility of CEINGE, Naples, Italy), was cultured in a 4:1 mixture of DMEM and Medium 199 supplemented with 4 mM L-glutamine, 4.5 g/L glucose, 1.5 g/L sodium bicarbonate, 10% FBS, 100 IU/mL penicillin G and […] streptomycin in a humidified incubator at 37 °C under 5% CO2 atmosphere. Cells were split and seeded every 3 days and used during their exponential phase of growth. Cell treatments were usually carried out after 24 h from plating. To obtain total protein extracts from BJ5-ta, cells were seeded into six-well plates (3 × 10^5 cells/plate) for 24 h at 37 °C and then treated with ALS-31 or 0.5% (v/v) DMSO. After treatment, cells were harvested, washed with PBS and then lysed in ice-cold modified radio immunoprecipitation assay (RIPA) buffer (50 mM Tris•HCl, pH 7.4, 150 mM NaCl, 1% Nonidet P-40, 0.25% sodium deoxycholate, 1 mM Na3VO4 and 1 mM NaF), supplemented with protease inhibitors and incubated for 30 min on ice. […]
# A colony-forming assay was performed as previously described, with some modifications. […] Cells were photographed with a digital camera (Canon PowerShot G9); the number of colonies (≥50 cells per colony) was counted using ImageJ 1.42q software.
# SmSOD homodimer = target: T1, SmSOD homodimer (Streptococcus mutans serotype c, UniProt P09738); assay: Size exclusion chromatography (gel-filtration) of SmSOD
# T1 construct: His-tail; made in house; host or cells: Escherichia coli BL21(DE3), vector vSmSOD (pET-22b(+)-derived)
# Method: The oligomerization status of SmSOD was analyzed by gel-filtration on a Superdex^TM 75 10/300 GL column (GE Healthcare) connected to an FPLC^TM system. The column was equilibrated and eluted at 0.5 mL/min at room temperature (20–24 °C) with a 20 mM Tris•HCl buffer, pH 7.8, containing 150 mM KCl and 1% (v/v) DMSO. However, where indicated, the equilibration and elution buffer also contained 200 µM inhibitor. The protein molecular mass standards used for calibration of the size exclusion chromatography were bovine serum albumin (68 kDa), egg albumin (46 kDa), carbonic anhydrase (30 kDa) and cytochrome c (12.4 kDa).
# Figure 4 Effect of ALS-31 on gel-filtration of SmSOD. A protein sample of SmSOD, 63 µM in 20 mM Tris•HCl buffer, pH 7.8, supplemented with 150 mM KCl and 1% (v/v) DMSO, was untreated or incubated at room temperature for 20 min with 200 µM ALS-31. The protein sample was then loaded on a Superdex 75 10/300 column and the elution profile was followed by a continuous absorbance monitoring at 280 nm. Untreated SmSOD (black line); SmSOD incubated with 200 µM ALS-31 without (green line) or after the addition of 200 µM ALS-31 in the elution buffer (red line). The elution volumes of bovine serum albumin (9.56 mL), egg albumin (10.44 mL), carbonic anhydrase (11.72 mL) and cytochrome c (13.51 mL), used as standard protein markers, are indicated by inverted triangles. Their position was unaffected by the addition of ALS-31 in equilibration and elution buffer.
# T1 sequence (P09738 2-203): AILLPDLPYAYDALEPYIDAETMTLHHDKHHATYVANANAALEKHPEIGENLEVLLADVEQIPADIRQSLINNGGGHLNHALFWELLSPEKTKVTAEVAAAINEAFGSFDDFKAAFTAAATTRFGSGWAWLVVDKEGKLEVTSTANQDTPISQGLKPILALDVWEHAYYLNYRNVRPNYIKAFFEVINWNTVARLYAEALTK
# cambialistic StSOD, sequence (Q5M4Z1 entry or part of it): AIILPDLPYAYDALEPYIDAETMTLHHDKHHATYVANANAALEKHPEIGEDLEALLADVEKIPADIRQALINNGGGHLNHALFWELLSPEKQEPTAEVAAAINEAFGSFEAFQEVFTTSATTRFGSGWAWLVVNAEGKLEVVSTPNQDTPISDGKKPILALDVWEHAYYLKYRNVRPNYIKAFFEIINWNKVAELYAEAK
compound,measurement,setting,value
CSCCC(NC(=O)COc1ccc2c3c(c(=O)oc2c1)CCCC3)C(=O)NCCC(=O)O (centres unmarked) [ALS-31],IC50,cambialistic StSOD,218 ± 50 µM
same,toxicity for growth / viability of fibroblast cell line BJ-5ta (colony formation),[1],not affected; also recorded: not toxic
same,calculated molecular mass of SmSOD major peak,"SmSOD homodimer; 200 µM compound in equilibration and elution buffer, untreated SmSOD 51.8 kDa",23.2 kDa
same,quaternary structure of SmSOD in gel-filtration,SmSOD homodimer; 200 µM compound in protein sample and elution buffer,dissociation of the SmSOD homodimer in two monomers
same,elution of SmSOD compared with untreated sample,"SmSOD homodimer; SmSOD incubated with 200 µM compound before loading, no compound in elution buffer",almost identical elution
